Where a name gives a salt, the structure may show the parent alone.
Each compound was assayed against YKL-40 (Homo sapiens (Human), UniProt P36222) (assay: YKL-40:4 assay, competitive chitin binding site AlphaScreen). Conditions: competition with biotinylated compound 4 (20 nM), YKL-40-histag 2.5 nM.
Chain of YKL-40 (P36222 22-383): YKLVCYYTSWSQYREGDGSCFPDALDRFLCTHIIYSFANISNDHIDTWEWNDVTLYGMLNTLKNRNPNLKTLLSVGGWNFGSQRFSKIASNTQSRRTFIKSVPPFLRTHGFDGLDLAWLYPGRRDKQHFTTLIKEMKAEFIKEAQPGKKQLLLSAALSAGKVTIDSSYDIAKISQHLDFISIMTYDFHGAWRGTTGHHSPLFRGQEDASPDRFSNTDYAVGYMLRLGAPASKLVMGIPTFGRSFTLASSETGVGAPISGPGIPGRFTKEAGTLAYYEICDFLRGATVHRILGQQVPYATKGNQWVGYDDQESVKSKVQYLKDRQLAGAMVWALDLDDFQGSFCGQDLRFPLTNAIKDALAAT

| SMILES | IC50 |
| --- | --- |
| C[C@H]1CN(C2CCN(c3ccccc3)CC2)[C@@H](Cc2ccc(Cl)cc2)CO1 [Example 37, (2S,5S)-5-(4-chlorobenzyl)-2-methyl-4-(1-phenylpiperidin-4-yl)morpholine dihydrochloride] | > 100000 nM |
| Clc1ccc(C[C@H]2CN3CCC[C@H]3CN2C2CCN(c3ccccn3)CC2)cc1 [Example 38, (3S,8aS)-3-(4-chlorobenzyl)-2-(1-(pyridin-2-yl)piperidin-4-yl)octahydropyrrolo[1,2-α]pyrazine 2,2,2-trifluoroacetate] | < 100 nM |
| Cc1ccnc(N2CCC(N3C[C@H](C)OC[C@@H]3Cc3ccc(Cl)cc3)CC2)n1 [Example 39, (2S,5S)-5-(4-chlorobenzyl)-2-methyl-4-(1-(4-methylpyrimidin-2-yl)piperidin-4-yl)morpholine dihydrochloride] | 100 to 1000 nM |
| O[C@@H]1C[C@H]2CN(C3CCN(c4ncccn4)CC3)[C@@H](Cc3ccc(Cl)cc3)CN2C1 [Example 40, (3S,7R,8aS)-3-(4-chlorobenzyl)-2-(1-(pyrimidin-2-yl)piperidin-4-yl)octahydropyrrolo[1,2-α]pyrazin-7-ol 2,2,2-trifluoroacetate] | 100 to 1000 nM |
| Cc1ccnc(N2CCC(N3C[C@@H]4C[C@@H](O)CN4C[C@@H]3Cc3ccc(Cl)cc3)CC2)n1 [Example 41, (3S,7R,8aS)-3-(4-chlorobenzyl)-2-(1-(4-methylpyrimidin-2-yl)piperidin-4-yl)octahydropyrrolo[1,2-α]pyrazin-7-ol 2,2,2-trifluoroacetate] | 100 to 1000 nM |
| O[C@H]1C[C@H]2CN(C3CCN(c4ncccn4)CC3)[C@@H](Cc3ccc(Cl)cc3)CN2C1 [Example 42, (3S,7S,8aS)-3-(4-chlorobenzyl)-2-(1-(pyrimidin-2-yl)piperidin-4-yl)octahydropyrrolo[1,2-α]pyrazin-7-ol 2,2,2-trifluoroacetate] | 100 to 1000 nM |
| Cc1ccnc(N2CCC(N3C[C@@H]4C[C@H](O)CN4C[C@@H]3Cc3ccc(Cl)cc3)CC2)n1 [Example 43, (3S,7S,8aS)-3-(4-chlorobenzyl)-2-(1-(4-methylpyrimidin-2-yl)piperidin-4-yl)octahydropyrrolo[1,2-α]pyrazin-7-ol 2,2,2-trifluoroacetate] | 100 to 1000 nM |
| C[C@H]1CN(C2CCN(c3ncc(F)cn3)CC2)[C@@H](Cc2ccc(Cl)cc2)CO1 [compound 46, (2S,5S)-5-(4-chlorobenzyl)-4-(1-(5-fluoropyrimidin-2-yl)piperidin-4-yl)-2-methylmorpholine 2,2,2-trifluoroacetate] | 1000 to 10000 nM |
| Cc1ccnc(N2CCC(N3C[C@H](C)OC[C@@H]3Cc3ccc(Cl)cc3)CC2)c1C#N [compound 47, 2-(4-((2S,5S)-5-(4-chlorobenzyl)-2-methylmorpholino)piperidin-1-yl)-4-methyl-nicotinonitrile 2,2,2-trifluoroacetate] | 100 to 1000 nM |
| C[C@H]1CN(C2CCN(c3ncccc3C(F)(F)F)CC2)[C@@H](Cc2ccc(Cl)cc2)CO1 [compound 49, (2S,5S)-5-(4-chlorobenzyl)-2-methyl-4-(1-(3-(trifluoromethyl)pyridin-2-yl)-piperidin-4-yl)morpholine 2,2,2-trifluoroacetate] | 10000 to 100000 nM |
| CN1C[C@H](Cc2ccc(Cl)cc2)N(C2CCN(c3cc(Cl)ccn3)CC2)C[C@@H]1CO [compound 50, ((2R,5S)-5-(4-chlorobenzyl)-4-(1-(4-chloropyridin-2-yl)piperidin-4-yl)-1-methyl-piperazin-2-yl)methanol] | < 100 nM |
| C[C@H]1CN(C2C[C@H]3CC[C@@H](C2)N3c2cc(Cl)ccn2)[C@@H](Cc2ccc(Cl)cc2)CO1 (stereo partly drawn) [compound 58, (2S,5S)-5-(4-chlorobenzyl)-4-((1R,5S)-8-(4-chloropyridin-2-yl)-8-azabicyclo[3.2.1]octan-3-yl)-2-methylmorpholine 2,2,2-trifluoroacetate] | > 100000 nM |
| CO[C@@H]1CN(c2cc(Cl)ccn2)CC[C@@H]1N1C[C@H](C)OC[C@@H]1Cc1ccc(Cl)cc1 [compound 59, (2S,5S)-5-(4-chlorobenzyl)-4-((3R,4S)-1-(4-chloropyridin-2-yl)-3-methoxypiperidin-4-yl)-2-methylmorpholine 2,2,2-trifluoroacetate] | 1000 to 10000 nM |
| CO[C@H]1CN(c2cc(Cl)ccn2)CC[C@@H]1N1C[C@H](C)OC[C@@H]1Cc1ccc(Cl)cc1 [compound 60, (2S,5S)-5-(4-chlorobenzyl)-4-((3S,4S)-1-(4-chloropyridin-2-yl)-3-methoxypiperidin-4-yl)-2-methylmorpholine 2,2,2-trifluoroacetate] | 10000 to 100000 nM |
| CN(C)C(=O)OC[C@H]1CN(C2CCN(c3ncccn3)CC2)[C@@H](Cc2ccc(Cl)cc2)CO1 [compound 70, ((2R,5S)-5-(4-chlorobenzyl)-4-(1-(pyrimidin-2-yl)piperidin-4-yl)morpholin-2-yl)methyl dimethylcarbamate 2,2,2-trifluoroacetate] | 1000 to 10000 nM |
| Clc1ccc(C[C@H]2COc3ccccc3CN2C2CCN(c3ccccn3)CC2)cc1 [compound 81, (S)-3-(4-chlorobenzyl)-4-(1-(pyridin-2-yl)piperidin-4-yl)-2,3,4,5-tetrahydrobenzo[f][1,4]oxazepine hydrochloride] | > 100000 nM |

The remaining lines, values ahead:

| IC50 | SMILES |
| --- | --- |
| < 100 nM | CC(C)[C@H]1CN(C2CCN(c3ccccn3)CC2)[C@@H](Cc2ccc(Cl)cc2)CN1C [compound 62, (2S,5S)-2-(4-chlorobenzyl)-5-isopropyl-4-methyl-1-(1-(pyridin-2-yl)piperidin-4-yl)piperazine 2,2,2-trifluoroacetate] |
| 100 to 1000 nM | CN1CCN(C2CCN(c3ccccn3)CC2)[C@@H](Cc2ccc(Cl)cc2)C1 [compound 64, (S)-2-(4-chlorobenzyl)-4-methyl-1-(1-(pyridin-2-yl)piperidin-4-yl)piperazine 2,2,2-trifluoroacetate] |
| > 100000 nM | C[C@H]1CN(C2CCN(c3ccnc(Cl)n3)CC2)[C@@H](Cc2ccc(Cl)cc2)CO1 [compound 66, (2S,5S)-5-(4-chlorobenzyl)-4-(1-(2-chloropyrimidin-4-yl)piperidin-4-yl)-2-methylmorpholine] |
| > 100000 nM | C[C@H]1CN(C2CCN(c3ccnc(N)n3)CC2)[C@@H](Cc2ccc(Cl)cc2)CO1 [compound 67, 4-(4-((2S,5S)-5-(4-chlorobenzyl)-2-methylmorpholino)piperidin-1-yl)pyrimidin-2-amine 2,2,2-trifluoroacetate] |
| 1000 to 10000 nM | CN1CCN(C[C@H]2CN(C3CCN(c4ncccn4)CC3)[C@@H](Cc3ccc(Cl)cc3)CO2)CC1 [compound 71, (2S,5S)-5-(4-chlorobenzyl)-2-((4-methylpiperazin-1-yl)methyl)-4-(1-(pyrimidin-2-yl)piperidin-4-yl)morpholine 2,2,2-trifluoroacetate] |
| 1000 to 10000 nM | CN(C)CCN(C)C[C@H]1CN(C2CCN(c3ncccn3)CC2)[C@@H](Cc2ccc(Cl)cc2)CO1 [compound 72, N^1-(((2S,5S)-5-(4-chlorobenzyl)-4-(1-(pyrimidin-2-yl)piperidin-4-yl)morpholin-2-yl)methyl)-N^1,N^2,N^2-trimethylethane-1,2-diamine 2,2,2-trifluoroacetate] |
| 1000 to 10000 nM | O[C@@H]1CCN(C[C@H]2CN(C3CCN(c4ncccn4)CC3)[C@@H](Cc3ccc(Cl)cc3)CO2)C1 [compound 73, (R)-1-(((2S,5S)-5-(4-chlorobenzyl)-4-(1-(pyrimidin-2-yl)piperidin-4-yl)morpholin-2-yl)methyl)pyrrolidin-3-ol 2,2,2-trifluoroacetate] |
| 1000 to 10000 nM | O[C@H]1CCN(C[C@H]2CN(C3CCN(c4ncccn4)CC3)[C@@H](Cc3ccc(Cl)cc3)CO2)C1 [compound 74, (S)-1-(((2S,5S)-5-(4-chlorobenzyl)-4-(1-(pyrimidin-2-yl)piperidin-4-yl)morpholin-2-yl)methyl)pyrrolidin-3-ol 2,2,2-trifluoroacetate] |
| 100 to 1000 nM | CC(=O)NC[C@H]1CN(C2CCN(c3ncccn3)CC2)[C@@H](Cc2ccc(Cl)cc2)CO1 [compound 75, N-(((2S,5S)-5-(4-chlorobenzyl)-4-(1-(pyrimidin-2-yl)piperidin-4-yl)morpholin-2-yl)methyl)acetamide 2,2,2-trifluoroacetate] |
| > 100000 nM | O=C1c2ccccc2C(=O)N1C[C@H]1CN(C2CCN(c3ncccn3)CC2)[C@@H](Cc2ccc(Cl)cc2)CO1 [compound 76, 2-(((2R,5S)-5-(4-chlorobenzyl)-4-(1-(pyrimidin-2-yl)piperidin-4-yl)morpholin-2-yl)methyl)isoindoline-1,3-dione dihydrochloride] |
| 1000 to 10000 nM | O=C1CCC(=O)N1C[C@H]1CN(C2CCN(c3ncccn3)CC2)[C@@H](Cc2ccc(Cl)cc2)CO1 [compound 77, 1-(((2R,5S)-5-(4-chlorobenzyl)-4-(1-(pyrimidin-2-yl)piperidin-4-yl)morpholin-2-yl)methyl)pyrrolidine-2,5-dione 2,2,2-trifluoroacetate] |
| 1000 to 10000 nM | O=C1CNC(=O)N1C[C@H]1CN(C2CCN(c3ncccn3)CC2)[C@@H](Cc2ccc(Cl)cc2)CO1 [compound 78, 3-(((2R,5S)-5-(4-chlorobenzyl)-4-(1-(pyrimidin-2-yl)piperidin-4-yl)morpholin-2-yl)methyl)imidazolidine-2,4-dione 2,2,2-trifluoroacetate] |
| < 100 nM | CN1CCN(C[C@H]2CN(C3CCN(c4cc(Cl)ccn4)CC3)[C@@H](Cc3ccc(Cl)cc3)CN2C)CC1 [compound 83, (2S,5S)-2-(4-chlorobenzyl)-1-(1-(4-chloropyridin-2-yl)piperidin-4-yl)-4-methyl-5-((4-methylpiperazin-1-yl)methyl)piperazine 2,2,2-trifluoroacetate] |
| > 100000 nM | CN1C[C@H](Cc2ccc(Cl)cc2)N(C2CCN(c3cc(Cl)ccn3)CC2)C[C@@H]1COc1ccc2ccccc2c1 [compound 84, (2S,5R)-2-(4-chlorobenzyl)-1-(1-(4-chloropyridin-2-yl)piperidin-4-yl)-4-methyl-5-((naphthalen-2-yloxy)methyl)piperazine 2,2,2-trifluoroacetate] |
| 10000 to 100000 nM | C[C@H]1CN(C2CCN(c3ccccn3)C(=O)C2)[C@@H](Cc2ccc(Cl)cc2)CO1 (stereo partly drawn) [compound 85, 4-((2S,5S)-5-(4-chlorobenzyl)-2-methylmorpholino)-1-(pyridin-2-yl)piperidin-2-one 2,2,2-trifluoroacetate] |

Source: patent publication US20230278996A1, “YKL-40 INHIBITORS AND THEIR THERAPEUTIC APPLICATIONS” (Molecure S.A., priority 2022, published 2023)
